A value given as a limit tells only on which side of the number the result lay.

The subject of this experiment is Gram-positive and Gram-negative bacteria. Kind of experiment: In vitro antibacterial assay, pooled statement over all tested strains. In kind it is cell-based, S. aureus, B. subtilis, S. typhi, E. coli.

In turn, `O=c1c(O)c(-c2ccc(O)c(O)c2)oc2cc(O)cc(O)c12` [Compound 1, quercetin] showed an MIC of 0.0692 to 0.151 µM.
Turning to `O=c1c(O)c(-c2ccc(O)cc2)oc2cc(O)cc(O)c12` [Compound 3, kaempferol], the MIC was above 100 µg/mL.

One may read the MIC as the least concentration at which growth counts as inhibited.

(Values after article PMC7885310 (3 Biotech, 2021).)
